Measurements taken from PubChem BioAssay AID248 (DTP/NCI, 2004).
Where “and” joins values, the source holds several entries; their conditions need not be identical. Equal entries are not always repeated. Inconclusive results and toxic doses are left out. Rule as the data show it: active = T/C of 150% or more; inactive = T/C below 125%.

Tested on: L1210 leukemia ip in BDF1 mice, survival T/C
Assay: NCI In Vivo Anticancer Drug Screen. Data for tumor model L1210 Leukemia (intraperitoneal) in B6D2F1 (BDF1) mice
Conditions: endpoint: mean survival time, higher = longer survival
Procedure, shortened: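 In this screen, tumor-bearing mice given compound are compared to those given vehicle, and their survival values are reported as a treated-to-control quotient.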

[1] = dose: 100.0 mg/kg/injection, schedule: Q01DX001 (ip), vehicle: carboxymethylcellulose (CMC)
[2] = dose: 200.0 mg/kg/injection, schedule: Q01DX001 (ip), vehicle: carboxymethylcellulose (CMC)
[3] = dose: 75.0 mg/kg/injection, schedule: Q01DX001 (ip), vehicle: saline
[4] = dose: 150.0 mg/kg/injection, schedule: Q01DX001 (ip), vehicle: saline
[5] = dose: 100.0 mg/kg/injection, schedule: Q01DX001 (ip), vehicle: saline
[6] = dose: 200.0 mg/kg/injection, schedule: Q01DX001 (ip), vehicle: saline
[7] = dose: 400.0 mg/kg/injection, schedule: Q01DX001 (ip), vehicle: saline
[8] = dose: 100.0 mg/kg/injection, schedule: Q04DX003 (ip), vehicle: saline
[9] = dose: 100.0 mg/kg/injection, schedule: Q01DX009 (ip), vehicle: Klucel (hydroxypropylcellulose) (HPC)
[10] = dose: 200.0 mg/kg/injection, schedule: Q01DX009 (ip), vehicle: Klucel (hydroxypropylcellulose) (HPC)
[11] = dose: 400.0 mg/kg/injection, schedule: Q01DX009 (ip), vehicle: Klucel (hydroxypropylcellulose) (HPC)
[12] = dose: 100.0 mg/kg/injection, schedule: Q04DX003 (ip), vehicle: Klucel (hydroxypropylcellulose) (HPC)
[13] = dose: 200.0 mg/kg/injection, schedule: Q04DX003 (ip), vehicle: Klucel (hydroxypropylcellulose) (HPC)
[14] = dose: 400.0 mg/kg/injection, schedule: Q04DX003 (ip), vehicle: Klucel (hydroxypropylcellulose) (HPC)

Measured: T/C

CCC(Cl)COP(=O)(OCC(Cl)CC)O/C(C)=C(\C)OP(=S)(OCC(Cl)CC)OCC(Cl)CC (stereo not given)
inactive: dose: 100.0 mg/kg/injection, schedule: Q04DX002 (sc), vehicle: olive oil, sesame oil, peanut oil 108 % of control | dose: 200.0 mg/kg/injection, schedule: Q04DX002 (sc), vehicle: olive oil, sesame oil, peanut oil 102 % of control | dose: 400.0 mg/kg/injection, schedule: Q04DX002 (sc), vehicle: olive oil, sesame oil, peanut oil 102 % of control

O=C(CCCN1CCC2(CC1)OC(=O)N(c1ccc(F)cc1)C2=O)c1cccs1
inactive: dose: 50.0 mg/kg/injection, schedule: Q01DX001 (ip), vehicle: Klucel (hydroxypropylcellulose) (HPC) 94 % of control | dose: 100.0 mg/kg/injection, schedule: Q01DX001 (ip), vehicle: Klucel (hydroxypropylcellulose) (HPC) 91 % of control | dose: 200.0 mg/kg/injection, schedule: Q01DX001 (ip), vehicle: Klucel (hydroxypropylcellulose) (HPC) 88 % of control

COc1cc2cc3c4cc(OC)c(OC)cc4cc[n+]3c(/C=C/c3cc([N+](=O)[O-])ccc3O)c2cc1OC
inactive: dose: 100.0 mg/kg/injection, schedule: Q01DX001 (ip), vehicle: other 97 % of control and 100 % of control | dose: 100.0 mg/kg/injection, schedule: Q04DX002 (ip), vehicle: other 112 % of control and 92 % of control | dose: 100.0 mg/kg/injection, schedule: Q04DX003 (ip), vehicle: other 106 % of control | dose: 200.0 mg/kg/injection, schedule: Q01DX001 (ip), vehicle: other 97 % of control and 103 % of control | dose: 200.0 mg/kg/injection, schedule: Q04DX002 (ip), vehicle: other 95 % of control and 88 % of control | dose: 200.0 mg/kg/injection, schedule: Q04DX003 (ip), vehicle: other 106 % of control | dose: 400.0 mg/kg/injection, schedule: Q01DX001 (ip), vehicle: other 96 % of control and 107 % of control | dose: 400.0 mg/kg/injection, schedule: Q04DX002 (ip), vehicle: other 94 % of control and 98 % of control | dose: 400.0 mg/kg/injection, schedule: Q04DX003 (ip), vehicle: other 101 % of control

Cc1nccn1-c1ccc(N=Cc2ccc(N(CCCl)CCCl)cc2)cc1
inactive: dose: 43.8 mg/kg/injection, schedule: Q04DX002 (ip), vehicle: Klucel (hydroxypropylcellulose) (HPC) 106 % of control | dose: 87.5 mg/kg/injection, schedule: Q04DX002 (ip), vehicle: Klucel (hydroxypropylcellulose) (HPC) 106 % of control | dose: 175.0 mg/kg/injection, schedule: Q04DX002 (ip), vehicle: Klucel (hydroxypropylcellulose) (HPC) 109 % of control

CCCCC(=O)N1CCCCC1
inactive: dose: 50.0 mg/kg/injection, schedule: Q01DX001 (ip), vehicle: carboxymethylcellulose (CMC) 104 % of control | dose: 50.0 mg/kg/injection, schedule: Q01DX009 (ip), vehicle: carboxymethylcellulose (CMC) 94 % of control and 97 % of control | dose: 50.0 mg/kg/injection, schedule: Q04DX003 (ip), vehicle: carboxymethylcellulose (CMC) 102 % of control | [1] 106 % of control | dose: 100.0 mg/kg/injection, schedule: Q01DX009 (ip), vehicle: carboxymethylcellulose (CMC) 94 % of control and 102 % of control | dose: 100.0 mg/kg/injection, schedule: Q04DX002 (ip), vehicle: carboxymethylcellulose (CMC) 98 % of control | dose: 100.0 mg/kg/injection, schedule: Q04DX003 (ip), vehicle: carboxymethylcellulose (CMC) 96 % of control | [2] 101 % of control | dose: 200.0 mg/kg/injection, schedule: Q01DX009 (ip), vehicle: carboxymethylcellulose (CMC) 96 % of control and 87 % of control | dose: 200.0 mg/kg/injection, schedule: Q04DX002 (ip), vehicle: carboxymethylcellulose (CMC) 91 % of control | dose: 200.0 mg/kg/injection, schedule: Q04DX003 (ip), vehicle: carboxymethylcellulose (CMC) 97 % of control

CC(=O)Nc1cccc(C[P+](c2ccccc2)(c2ccccc2)c2ccccc2)c1
inactive: dose: 5.0 mg/kg/injection, schedule: Q01DX001 (ip), vehicle: carboxymethylcellulose (CMC) 95 % of control | dose: 10.0 mg/kg/injection, schedule: Q01DX001 (ip), vehicle: carboxymethylcellulose (CMC) 98 % of control | dose: 20.0 mg/kg/injection, schedule: Q01DX001 (ip), vehicle: carboxymethylcellulose (CMC) 95 % of control | dose: 40.0 mg/kg/injection, schedule: Q01DX001 (ip), vehicle: carboxymethylcellulose (CMC) 95 % of control | dose: 80.0 mg/kg/injection, schedule: Q01DX001 (ip), vehicle: carboxymethylcellulose (CMC) 93 % of control | [1] 97 % of control | [2] 90 % of control

NC(C(=O)c1ccccc1)c1ccccc1.[Cl][Sn][Cl] (stereo not given)
inactive: [3] 102 % of control | [4] 117 % of control

COc1ccc(Cc2c3cc(OC)c(OC)cc3cc[n+]2[O-])cc1OC
inactive: [5] 91 % of control | [6] 96 % of control | [7] 96 % of control

CCOC(=O)c1ccc2cc(C(=O)c3ccccc3)ccc2n1
inactive: dose: 50.0 mg/kg/injection, schedule: Q01DX009 (ip), vehicle: saline 94 % of control | dose: 100.0 mg/kg/injection, schedule: Q01DX009 (ip), vehicle: saline 100 % of control | [8] 91 % of control | dose: 200.0 mg/kg/injection, schedule: Q04DX003 (ip), vehicle: saline 91 % of control | dose: 400.0 mg/kg/injection, schedule: Q04DX003 (ip), vehicle: saline 93 % of control

CCCCC(CCC)(CCN)CCCC
inactive: dose: 1.0 mg/kg/injection, schedule: Q01DX009 (ip), vehicle: Klucel (hydroxypropylcellulose) (HPC) 100 % of control | dose: 2.0 mg/kg/injection, schedule: Q01DX009 (ip), vehicle: Klucel (hydroxypropylcellulose) (HPC) 100 % of control | dose: 2.0 mg/kg/injection, schedule: Q04DX003 (ip), vehicle: Klucel (hydroxypropylcellulose) (HPC) 98 % of control | dose: 4.0 mg/kg/injection, schedule: Q01DX009 (ip), vehicle: Klucel (hydroxypropylcellulose) (HPC) 101 % of control | dose: 4.0 mg/kg/injection, schedule: Q04DX003 (ip), vehicle: Klucel (hydroxypropylcellulose) (HPC) 98 % of control | dose: 8.0 mg/kg/injection, schedule: Q01DX009 (ip), vehicle: Klucel (hydroxypropylcellulose) (HPC) 100 % of control | dose: 8.0 mg/kg/injection, schedule: Q04DX003 (ip), vehicle: Klucel (hydroxypropylcellulose) (HPC) 93 % of control | dose: 16.0 mg/kg/injection, schedule: Q04DX003 (ip), vehicle: Klucel (hydroxypropylcellulose) (HPC) 96 % of control | dose: 25.0 mg/kg/injection, schedule: Q01DX001 (ip), vehicle: carboxymethylcellulose (CMC) 95 % of control | [1] 93 % of control

O=C(O)CCCCCN1C(=O)C2=C(CCCC2)C1=O
inactive: dose: 75.0 mg/kg/injection, schedule: Q04DX003 (ip), vehicle: saline 98 % of control | dose: 150.0 mg/kg/injection, schedule: Q04DX003 (ip), vehicle: saline 103 % of control | dose: 300.0 mg/kg/injection, schedule: Q04DX003 (ip), vehicle: saline 93 % of control

COc1ccc(C2(OC(=O)c3ccc([N+](=O)[O-])cc3)C3C=CC2CC3)cc1 (stereo not given)
inactive: dose: 100.0 mg/kg/injection, schedule: Q04DX002 (ip), vehicle: Klucel (hydroxypropylcellulose) (HPC) 87 % of control | dose: 200.0 mg/kg/injection, schedule: Q04DX002 (ip), vehicle: Klucel (hydroxypropylcellulose) (HPC) 107 % of control | dose: 400.0 mg/kg/injection, schedule: Q04DX002 (ip), vehicle: Klucel (hydroxypropylcellulose) (HPC) 90 % of control

Cc1cc(C)c(NC(=O)C(C)(C)C)c(C)c1
inactive: [9] 96 % of control and 100 % of control | [10] 102 % of control | [11] 96 % of control and 100 % of control

COc1cc2c(c3oc(=O)ccc13)C=CC(C)(C)O2
inactive: [12] 102 % of control | [13] 107 % of control | [14] 94 % of control

O=C(NC(CSC(=O)OCc1ccccc1)C(=O)Oc1ccc([N+](=O)[O-])cc1)OCc1ccccc1 (stereo not given)
inactive: [9] 104 % of control | [12] 97 % of control | [10] 114 % of control | [13] 100 % of control | [11] 109 % of control | [14] 103 % of control

COC(=O)CC12CCCC(C)(CC(=O)N1)C2 (stereo not given)
inactive: [1] 93 % of control | [2] 96 % of control | dose: 400.0 mg/kg/injection, schedule: Q01DX001 (ip), vehicle: carboxymethylcellulose (CMC) 98 % of control

CN(N)C=O
inactive: [3] 100 % of control | [8] 108 % of control | [4] 96 % of control | dose: 300.0 mg/kg/injection, schedule: Q01DX001 (ip), vehicle: saline 98 % of control

Brc1ccccn1
inactive: [3] 105 % of control

CC1(C)N=C(N)N=C(N)N1c1ccc(OCC(=O)Nc2cccc(S(=O)(=O)F)c2)cc1
inactive: [5] 105 % of control | [6] 91 % of control | [7] 107 % of control
